The values below come from patent publication US12378245B2, “Crystalline forms of an RSK inhibitor” (PHOENIX MOLECULAR DESIGNS, priority 2019, dated 2025).

What all share (format): physicochemical
The nature of data set [1]: Dynamic Vapor Sorption (DVS). The conditions noted are these: for form by post-DVS XRPD analysis: after exposure to DVS humidity conditions. The method, then:
Approximately, 10-20 mg of sample was placed into a mesh vapour sorption balance pan and loaded into a DVS Intrinsic dynamic vapour sorption balance by Surface Measurement Systems. The sample was subjected to a ramping profile from 40-90% relative humidity (RH) at 10% increments, maintaining the sample at each step until a stable weight had been achieved (dm/dt 0.004%, minimum step length 30 minutes, maximum step length 500 minutes) at 25° C. After completion of the sorption cycle, the sample was dried using the same procedure to 0% RH and then a second sorption cycle back to 40% RH. Two cycles were performed. The weight change during the sorption/desorption cycles were plotted, allowing for the hygroscopic nature of the sample to be determined. XRPD analysis was then carried out on any solid retained.

Data set [2] can be described thus: Stability Studies - One Week Study. The settings on record: 40° C./75% RH or 80° C./under ambient light for 1 week. The method, then:
About 15 mg of Compound 1, Forms 1 and 2 were separately placed at either 40° C./75% RH or 80° C./under ambient light for 1 week. The resulting solids were analysed by XRPD and HPLC purity. No changes in Form 1 or Form 2 were observed under these conditions after 1 week.

A short description of data set [3]: Stability Studies - Eight Week Study. The settings on record: 40° C./75% RH (uncapped), 80° C. (capped), ambient light and temperature (approx. 22° C.). The method, then: About 5 mg of Compound 1, Form 1 was weighed into twenty-four, 1.5 mL glass vials. Each vial was placed at either 40° C./75% RH (uncapped vial), 80° C. (capped vial) and under ambient light and temperature (approx. 22° C., capped vial) for a total of 8 weeks. […] was removed from each condition for XRPD, ^1H NMR and HPLC purity analysis at 1 week, 2 weeks, 4 weeks and 8 weeks.

Molecules are shown by their SMILES.

As to `C[C@@H]1CNC(=O)c2cc3ccc(C(=O)Nc4cnn(Cc5ccc(N)cc5)c4)nc3n21.Cl` [Compound 1, Form 2, (R)—N-(1-(4-aminobenzyl)-1H-pyrazol-4-yl)-9-methyl-6-oxo-6,7,8,9-tetrahydropyrido[3′,2′:4,5]pyrrolo[1,2-a]pyrazine-2-carboxamide hydrochloride], the “form by post-DVS XRPD analysis” value in data set [1] (listed as Form 2 of Compound 1, hydrochloride) is listed as “no change in form”. Moreover, the “change in mass / mass uptake by DVS” value in data set [1] (at 90% RH, 25° C., listed as Form 2 of Compound 1, hydrochloride) is 1.8%.

As to `C[C@@H]1CNC(=O)c2cc3ccc(C(=O)Nc4cnn(Cc5ccc(N)cc5)c4)nc3n21.Cl` [Compound 1, Form 1, (R)—N-(1-(4-aminobenzyl)-1H-pyrazol-4-yl)-9-methyl-6-oxo-6,7,8,9-tetrahydropyrido[3′,2′:4,5]pyrrolo[1,2-a]pyrazine-2-carboxamide hydrochloride], the “form by post-DVS XRPD analysis” value in data set [1] (listed as Form 1 of Compound 1, hydrochloride) is “remained as Form 1”. In addition, in data set [1] (at 90% RH, 25° C.), the “water uptake by DVS” value is listed as 0.2 equiv. of water. Besides, the “change in mass / mass uptake by DVS” value in data set [1] (at 90% RH, 25° C., listed as Form 1 of Compound 1, hydrochloride) is recorded as “+0.8%”. In data set [1] (ramping 40-90% RH, 25° C., two cycles), the “hygroscopic nature by DVS” value was “slightly hygroscopic”. In addition, the “changes by XRPD and HPLC purity” value in data set [2] is given as “No changes”. In data set [3] (8 weeks), the “change in purity by HPLC” value was “no significant change”. For the same compound, the “change by XRPD and NMR analysis” value in data set [3] (after 8 weeks) is recorded as “no change”.
